Tested on: MV-4-11 cells
Assay: Gene expression microarray analysis (Affymetrix PrimeView) and GSEA
Type: cell-based, human
Set-up: RFU PODN (11730768_x_at) / Fold change /veh PODN (11730768_x_at) / RFU LINC00158 (11744669_a_at) / Fold change /veh LINC00158 (11744669_a_at) / RFU DUSP10 (11751237_a_at) / Fold change /veh DUSP10 (11751237_a_at) / RFU ID3 (11757404_x_at) / Fold change /veh ID3 (11757404_x_at) / RFU PLEKHG5 (11737974_s_at) / Fold change /veh PLEKHG5 (11737974_s_at) / RFU LRRC4B (11730491_at) / Fold change /veh LRRC4B (11730491_at) / RFU GIMAP4 (11747438_a_at) / Fold change /veh GIMAP4 (11747438_a_at) / RFU KRT8 (11758183_x_at) / Fold change /veh KRT8 (11758183_x_at) / RFU CNN1 (11734310_a_at) / Fold change /veh CNN1 (11734310_a_at) / RFU VPS37D (11726825_at) / Fold change /veh VPS37D (11726825_at) / RFU C10orf10 (11716522_x_at) / Fold change /veh C10orf10 (11716522_x_at) / RFU KIR2DL2 /// KIR2DL4 /// KIR2DL5A /// KIR2DL5B /// KIR2DS1 /// KIR2DS2 /// KIR2DS3 /// KIR2DS4 /// KIR3DL3 /// KIR3DL3 /// KIR3DS1 (11738374_at) / Fold change /veh KIR2DL2 /// KIR2DL4 /// KIR2DL5A /// KIR2DL5B /// KIR2DS1 /// KIR2DS2 /// KIR2DS3 /// KIR2DS4 /// KIR3DL3 /// KIR3DL3 /// KIR3DS1 (11738374_at) / RFU C1QL1 (11718748_at) / Fold change /veh C1QL1 (11718748_at) / RFU TMPRSS4 (11747572_a_at) / Fold change /veh TMPRSS4 (11747572_a_at) / RFU HAMP (11756126_x_at) / Fold change /veh HAMP (11756126_x_at) / RFU RNFT2 (11725882_a_at) / Fold change /veh RNFT2 (11725882_a_at) / RFU NR4A2 (11747474_a_at) / Fold change /veh NR4A2 (11747474_a_at) / RFU ABCC12 (11746883_a_at) / Fold change /veh ABCC12 (11746883_a_at) / RFU TMEM136 (11760407_x_at) / Fold change /veh TMEM136 (11760407_x_at) / RFU CLDN22 /// WWC2 (11732394_at) / Fold change /veh CLDN22 /// WWC2 (11732394_at) / RFU HLA-DPB1 (11760878_x_at) / Fold change /veh HLA-DPB1 (11760878_x_at) / RFU SPINT1 (11716480_a_at) / Fold change /veh SPINT1 (11716480_a_at) / RFU GAP43 (11754022_s_at) / Fold change /veh GAP43 (11754022_s_at) / RFU A4GNT (11735810_at) / Fold change /veh A4GNT (11735810_at) / RFU PRB3 (11715151_x_at) / Fold change /veh PRB3 (11715151_x_at) / RFU TUBB4B (11761932_at) / Fold change /veh TUBB4B (11761932_at) / RFU CAPN14 (11732068_a_at) / Fold change /veh CAPN14 (11732068_a_at) / RFU TMCC2 (11721928_a_at) / Fold change /veh TMCC2 (11721928_a_at) / RFU IRGQ (11745062_a_at) / Fold change /veh IRGQ (11745062_a_at) / RFU FAM174B (11720279_a_at) / Fold change /veh FAM174B (11720279_a_at) / RFU TMPRSS4 (11748680_a_at) / Fold change /veh TMPRSS4 (11748680_a_at) / RFU FAM212B (11763350_a_at) / Fold change /veh FAM212B (11763350_a_at) / RFU PLEKHG5 (11743358_a_at) / Fold change /veh PLEKHG5 (11743358_a_at) / RFU ZSCAN30 (11745921_a_at) / Fold change /veh ZSCAN30 (11745921_a_at) / RFU CMKLR1 (11741424_a_at) / Fold change /veh CMKLR1 (11741424_a_at) / RFU LOC101060620 /// MAPK8IP1 (11723275_at) / Fold change /veh LOC101060620 /// MAPK8IP1 (11723275_at) / RFU SPTSSB (11747773_x_at) / Fold change /veh SPTSSB (11747773_x_at) / RFU PRSS12 (11739890_at) / Fold change /veh PRSS12 (11739890_at) / RFU BIN1 (11741810_x_at) / Fold change /veh BIN1 (11741810_x_at) / RFU WNT11 (11732464_a_at) / Fold change /veh WNT11 (11732464_a_at) / RFU C10orf10 (11716521_a_at) / Fold change /veh C10orf10 (11716521_a_at) / RFU C5orf56 (11738089_at) / Fold change /veh C5orf56 (11738089_at) / RFU CYB561 (11721691_x_at) / Fold change /veh CYB561 (11721691_x_at) / RFU ANKRD19P (11752326_a_at) / Fold change /veh ANKRD19P (11752326_a_at) / RFU OR2T12 /// OR2T33 /// OR2T8 (11738714_s_at) / Fold change /veh OR2T12 /// OR2T33 /// OR2T8 (11738714_s_at) / RFU VCAN (11748164_a_at) / Fold change /veh VCAN (11748164_a_at) / RFU JSRP1 (11732532_at) / Fold change /veh JSRP1 (11732532_at) / RFU KRTAP10-11 (11738290_x_at) / Fold change /veh KRTAP10-11 (11738290_x_at) / RFU MYO3A (11730013_a_at) / Fold change /veh MYO3A (11730013_a_at) / RFU EBF3 (11725865_a_at) / Fold change /veh EBF3 (11725865_a_at) / RFU CAMK2N1 (11719241_x_at) / Fold change /veh CAMK2N1 (11719241_x_at) / RFU C5orf56 (11738088_a_at) / Fold change /veh C5orf56 (11738088_a_at) / RFU OLFML3 (11715873_a_at) / Fold change /veh OLFML3 (11715873_a_at) / RFU LOC100653217 /// NTM (11731650_a_at) / Fold change /veh LOC100653217 /// NTM (11731650_a_at) / RFU MAPK11 (11762145_a_at) / Fold change /veh MAPK11 (11762145_a_at) / RFU FIZ1 (11724087_x_at) / Fold change /veh FIZ1 (11724087_x_at) / RFU OASL (11726364_x_at) / Fold change /veh OASL (11726364_x_at) / RFU SOX15 (11748057_x_at) / Fold change /veh SOX15 (11748057_x_at) / RFU CD79A (11719716_a_at) / Fold change /veh CD79A (11719716_a_at) / RFU HIST1H1D (11736915_at) / Fold change /veh HIST1H1D (11736915_at) / RFU CASKIN2 (11723855_a_at) / Fold change /veh CASKIN2 (11723855_a_at) / RFU LOC730098 (11760151_x_at) / Fold change /veh LOC730098 (11760151_x_at) / RFU OR4N2 (11742367_at) / Fold change /veh OR4N2 (11742367_at) / RFU PRRT2 (11749266_a_at) / Fold change /veh PRRT2 (11749266_a_at) / RFU SNX32 (11753110_a_at) / Fold change /veh SNX32 (11753110_a_at) / RFU CDHR5 (11726645_a_at) / Fold change /veh CDHR5 (11726645_a_at) / RFU RCAN1 (11760418_a_at) / Fold change /veh RCAN1 (11760418_a_at) / RFU FAM167A (11723789_a_at) / Fold change /veh FAM167A (11723789_a_at) / RFU FAM26E (11764081_at) / Fold change /veh FAM26E (11764081_at) / RFU ISYNA1 (11749810_s_at) / Fold change /veh ISYNA1 (11749810_s_at) / RFU ACY1 (11761880_at) / Fold change /veh ACY1 (11761880_at) / RFU 11764098_at / Fold change /veh 11764098_at / RFU SAMD14 (11745864_x_at) / Fold change /veh SAMD14 (11745864_x_at) / RFU NPB (11741838_a_at) / Fold change /veh NPB (11741838_a_at) / RFU TMPRSS6 (11731388_a_at) / Fold change /veh TMPRSS6 (11731388_a_at) / RFU KRTAP10-2 (11738614_at) / Fold change /veh KRTAP10-2 (11738614_at) / RFU ARHGAP8 /// PRR5-ARHGAP8 (11727945_x_at) / Fold change /veh ARHGAP8 /// PRR5-ARHGAP8 (11727945_x_at) / RFU KRTAP5-7 /// NADSYN1 (11734609_at) / Fold change /veh KRTAP5-7 /// NADSYN1 (11734609_at) / RFU RASL12 (11751679_a_at) / Fold change /veh RASL12 (11751679_a_at) / RFU CDKN2B (11736163_a_at) / Fold change /veh CDKN2B (11736163_a_at) / RFU PRF1 (11729649_at) / Fold change /veh PRF1 (11729649_at) / RFU, ZNF638 /// ZNF638-IT1 / Fold change vs veh, ZNF638 /// ZNF638-IT1 / RFU, PANK3 / Fold change vs veh, PANK3 / RFU, SH3YL1 / Fold change vs veh, SH3YL1 / RFU, ZEB2 / Fold change vs veh, ZEB2 / RFU, NRIP1 / Fold change vs veh, NRIP1 / RFU, PTTG1IP / Fold change vs veh, PTTG1IP / RFU, CAPN2 / Fold change vs veh, CAPN2 / RFU, MED14 / Fold change vs veh, MED14 / RFU, SNORA58 / Fold change vs veh, SNORA58 / RFU, C1orf63 / Fold change vs veh, C1orf63 / RFU, LRRFIP1 / Fold change vs veh, LRRFIP1 / RFU, NDUFAF7 / Fold change vs veh, NDUFAF7 / RFU, SLC12A2 / Fold change vs veh, SLC12A2 / RFU, IBTK / Fold change vs veh, IBTK / RFU, ESF1 / Fold change vs veh, ESF1 / Fold change vs veh, TMEM50B / RFU, TAOK1 / Fold change vs veh, TAOK1 / RFU, ACBD3 / Fold change vs veh, ACBD3 / RFU, TMA16 / Fold change vs veh, TMA16 / RFU, RWDD3 / Fold change vs veh, RWDD3 / RFU, BCAT1 / Fold change vs veh, BCAT1 / RFU, EDEM3 / Fold change vs veh, EDEM3 / RFU, TMEM33 / Fold change vs veh, TMEM33 / RFU, WDR75 / Fold change vs veh, WDR75 / RFU, AHCTF1 / Fold change vs veh, AHCTF1 / RFU, TFRC / Fold change vs veh, TFRC / RFU, ZDHHC17 / Fold change vs veh, ZDHHC17 / RFU, NOM1 / Fold change vs veh, NOM1 / RFU, ARL8B / Fold change vs veh, ARL8B / RFU, ZBTB11 / Fold change vs veh, ZBTB11 / RFU, TAMM41 / Fold change vs veh, TAMM41 / RFU, KIAA1704 /// LOC100996395 / Fold change vs veh, KIAA1704 /// LOC100996395 / RFU, ING1 / Fold change vs veh, ING1 / RFU, TRMT61B / Fold change vs veh, TRMT61B / RFU, FUBP3 / Fold change vs veh, FUBP3 / RFU, TP53 / Fold change vs veh, TP53 / RFU, TNKS2 / Fold change vs veh, TNKS2 / RFU, ZFP14 / Fold change vs veh, ZFP14 / RFU, ACTR2 / Fold change vs veh, ACTR2 / RFU, PPP3R1 / Fold change vs veh, PPP3R1 / RFU, PIK3R1 / Fold change vs veh, PIK3R1 / RFU, HNRNPA1 / Fold change vs veh, HNRNPA1 / RFU, RNF170 / Fold change vs veh, RNF170 / RFU, ZNF28 / Fold change vs veh, ZNF28 / RFU, RNGTT / Fold change vs veh, RNGTT / RFU, OGT / Fold change vs veh, OGT / RFU, BRD1 / Fold change vs veh, BRD1 / RFU, MARS / Fold change vs veh, MARS / RFU, ZNF655 / Fold change vs veh, ZNF655 / RFU, FAHD1 / Fold change vs veh, FAHD1 / RFU, BDP1 / Fold change vs veh, BDP1 / RFU, LRRCC1 / Fold change vs veh, LRRCC1 / RFU, ARID1A / Fold change vs veh, ARID1A / RFU, ZNF146 / Fold change vs veh, ZNF146 / RFU, ZNF330 / Fold change vs veh, ZNF330 / RFU, GPN3 / Fold change vs veh, GPN3 / RFU, C9orf123 / Fold change vs veh, C9orf123 / RFU, N4BP2L2 / Fold change vs veh, N4BP2L2 / RFU, ARFIP1 / Fold change vs veh, ARFIP1 / RFU, FAM179B / Fold change vs veh, FAM179B / RFU, BCL10 / Fold change vs veh, BCL10 / RFU, UHRF1BP1L / Fold change vs veh, UHRF1BP1L / RFU, BET1 / Fold change vs veh, BET1 / RFU, CNOT2 / Fold change vs veh, CNOT2 / RFU, ZNF268 / Fold change vs veh, ZNF268 / Fold change vs veh, ZNF507 / RFU, DGCR2 / Fold change vs veh, DGCR2 / RFU, WDSUB1 / Fold change vs veh, WDSUB1 / Fold change vs veh, HSP90B1 /// MIR3652 / RFU, ADSS / Fold change vs veh, ADSS / RFU, GK / Fold change vs veh, GK / RFU, ZNF148 / Fold change vs veh, ZNF148 / RFU, TAF9 / Fold change vs veh, TAF9 / RFU, SLC1A5 / Fold change vs veh, SLC1A5 / RFU, SLMO2 / Fold change vs veh, SLMO2 / RFU, ABCC4 / Fold change vs veh, ABCC4 / RFU, LOC101060439 /// RAP1B / Fold change vs veh, LOC101060439 /// RAP1B / RFU, RFX7 / Fold change vs veh, RFX7 / RFU, GTPBP10 / Fold change vs veh, GTPBP10 / RFU, CNEP1R1 / Fold change vs veh, CNEP1R1 / RFU, BIVM-ERCC5 /// ERCC5 / Fold change vs veh, BIVM-ERCC5 /// ERCC5 / RFU, ILF3 / Fold change vs veh, ILF3 / RFU 11762660_at / Fold change /veh 11762660_at / RFU VCAN (11757783_s_at) / Fold change /veh VCAN (11757783_s_at) / RFU DDX43 (11728927_at) / Fold change /veh DDX43 (11728927_at) / RFU KRT8 (11758188_x_at) / Fold change /veh KRT8 (11758188_x_at) / RFU NKD1 (11759106_at) / Fold change /veh NKD1 (11759106_at) / RFU SRD5A1 (11742802_a_at) / Fold change /veh SRD5A1 (11742802_a_at) / RFU TPSAB1 /// TPSB2 (11721975_s_at) / Fold change /veh TPSAB1 /// TPSB2 (11721975_s_at) / RFU GSTM3 (11746129_a_at) / Fold change /veh GSTM3 (11746129_a_at) / RFU IL23R (11737362_x_at) / Fold change /veh IL23R (11737362_x_at) / RFU TMEM51 (11727254_a_at) / Fold change /veh TMEM51 (11727254_a_at) / RFU PIWIL2 (11732686_x_at) / Fold change /veh PIWIL2 (11732686_x_at) / RFU ORM1 (11744905_x_at) / Fold change /veh ORM1 (11744905_x_at) / RFU CCDC152 (11743942_at) / Fold change /veh CCDC152 (11743942_at) / RFU ECM1 (11717891_a_at) / Fold change /veh ECM1 (11717891_a_at) / RFU IL23R (11748794_a_at) / Fold change /veh IL23R (11748794_a_at) / RFU TNFAIP8L3 (11732012_x_at) / Fold change /veh TNFAIP8L3 (11732012_x_at) / RFU MBOAT4 (11741988_at) / Fold change /veh MBOAT4 (11741988_at) / RFU 11764193_at / Fold change /veh 11764193_at / RFU TMEM53 (11763286_at) / Fold change /veh TMEM53 (11763286_at) / RFU MAGEB2 (11727129_at) / Fold change /veh MAGEB2 (11727129_at) / RFU TMEM200A (11744735_a_at) / Fold change /veh TMEM200A (11744735_a_at) / RFU CCDC152 (11751479_a_at) / Fold change /veh CCDC152 (11751479_a_at) / RFU FAM211A (11726209_a_at) / Fold change /veh FAM211A (11726209_a_at) / RFU RGS16 (11746705_a_at) / Fold change /veh RGS16 (11746705_a_at) / RFU VCAN (11755009_s_at) / Fold change /veh VCAN (11755009_s_at) / RFU RHOB (11743442_s_at) / Fold change /veh RHOB (11743442_s_at) / RFU RGS16 (11720943_a_at) / Fold change /veh RGS16 (11720943_a_at) / RFU RGS16 (11720944_at) / Fold change /veh RGS16 (11720944_at) / RFU, VPS4B / Fold change vs veh, VPS4B / RFU, CREB1 / Fold change vs veh, CREB1 / RFU, DNAJC13 / Fold change vs veh, DNAJC13 / RFU, GNAQ / Fold change vs veh, GNAQ / RFU, CDK5R1 / Fold change vs veh, CDK5R1 / RFU, ZRANB3 / Fold change vs veh, ZRANB3 / RFU, CUL4A / Fold change vs veh, CUL4A / RFU, CCNY / Fold change vs veh, CCNY / RFU, UFL1 / Fold change vs veh, UFL1 / RFU, COG3 / Fold change vs veh, COG3 / RFU, DIAPH2 / Fold change vs veh, DIAPH2 / RFU, SKA2 / Fold change vs veh, SKA2 / RFU, AFF3 / Fold change vs veh, AFF3 / RFU, LMF1 / Fold change vs veh, LMF1 / RFU, IPO11 / Fold change vs veh, IPO11 / RFU, DFFB / Fold change vs veh, DFFB / RFU, FOXP1 / Fold change vs veh, FOXP1 / RFU, CARD8 / Fold change vs veh, CARD8 / RFU, STRN3 / Fold change vs veh, STRN3 / RFU, ADK / Fold change vs veh, ADK / RFU, RASSF2 / Fold change vs veh, RASSF2 / RFU, WIPF1 / Fold change vs veh, WIPF1 / RFU, LARP1B / Fold change vs veh, LARP1B / RFU, RASA1 / Fold change vs veh, RASA1 / RFU, RB1 / Fold change vs veh, RB1 / RFU, PPFIA1 / Fold change vs veh, PPFIA1 / RFU, MAT2A / Fold change vs veh, MAT2A / RFU, CCT5 / Fold change vs veh, CCT5 / RFU, WDR92 / Fold change vs veh, WDR92 / RFU, CUX1 / Fold change vs veh, CUX1 / RFU, TTC7A / Fold change vs veh, TTC7A / RFU, TMEM135 / Fold change vs veh, TMEM135 / RFU, DEPTOR / Fold change vs veh, DEPTOR / RFU, CPM / Fold change vs veh, CPM / RFU, DNAJB6 / Fold change vs veh, DNAJB6 / RFU, CACNA2D3 / Fold change vs veh, CACNA2D3 / RFU, DTX4 / Fold change vs veh, DTX4 / RFU, TFCP2 / Fold change vs veh, TFCP2 / RFU, GMCL1 /// GMCL1P1 / Fold change vs veh, GMCL1 /// GMCL1P1 / RFU, AEBP2 / Fold change vs veh, AEBP2 / RFU, SNHG1 /// SNORD22 /// SNORD25 /// SNORD26 /// SNORD27 /// SNORD28 /// SNORD29 /// SNORD31 / Fold change vs veh, SNHG1 /// SNORD22 /// SNORD25 /// SNORD26 /// SNORD27 /// SNORD28 /// SNORD29 /// SNORD31 / Fold change (Aza/veh), C12orf56 (ProbeSet 11735607_a_at) / Fold change (ACY-1035/veh), C12orf56 (ProbeSet 11735607_a_at) / Fold change (Aza/veh), FGFR1OP (ProbeSet 11751329_s_at) / Fold change (ACY-1035/veh), FGFR1OP (ProbeSet 11751329_s_at) / Fold change (Aza/veh), VPS36 (ProbeSet 11739960_a_at) / Fold change (ACY-1035/veh), VPS36 (ProbeSet 11739960_a_at) / RFU SYPL1 (11715823_x_at) / Fold change /veh SYPL1 (11715823_x_at) / RFU IGFBP7 (11715501_s_at) / Fold change /veh IGFBP7 (11715501_s_at) / RFU REEP3 (11722064_at) / Fold change /veh REEP3 (11722064_at) / RFU IGLL1 (11728026_x_at) / Fold change /veh IGLL1 (11728026_x_at): dose or concentration left out as unconfirmed
Conditions: MV-4-11 cells, 48 hours

## Nc1ncn([C@@H]2O[C@H](CO)[C@@H](O)[C@H]2O)c(=O)n1 [azacitidine]
  RFU HLA-DPB1 (11760878_x_at): 15.97 RFU

Source: publication PMC5218480 (PLoS ONE, 2017)
